Tests used:
active TGF-β1 = assay: production of active TGF-β1 in glomeruli isolated from nephritic mice (ELISA); type: cell-based, BALB/c male mice; settings: Mus musculus, 10^-6 M, 48 hours, read-out: Inhibition rate (%) of production of active TGF-β1
Method: (§1) BALB/c male mice were adapted in a feeding chamber for 1 week before subjecting to experiments. Nephritis was induced by subcutaneously injecting an emulsion of rabbit γ-globulin and Freund's complete adjuvant on the back in a dose amount of 1.0 mg per mouse and, after 5 days (on the zeroth day), intravenously injecting rabbit anti-mouse GBM serum in a dose amount of 0.1 ml per mouse. After 1 day from the injection of anti-serum, the glomeruli were isolated through sieves with different sizes and washed twice. Each compound to be tested (10^-6 M) was added while the solvent was added to the control groups. The glomeruli were incubated in RPMI-1640 serum-free medium for 48 hours. The amount of production of active TGF-β1 was determined by measuring the supernatant itself after the incubation for 48 hours in ELSA method. Further, the supernatant was treated with hydrochloric acid and the pH was returned with sodium hydroxide. The total amount of TGF-β1 produced in the supernatant was measured in ELISA method. The protein concentration in the medium was also measured as glomeruli protein concentration. The inhibition rate was calculated by the following equation.
(§2) Inhibition rate (%)=100×(value of control group-value of sample)/(value of control group)

anti-GBM nephritic mice = assay: anti-GBM nephritic mice: proteinuria, serum cholesterol, blood urea nitrogen and serum creatinine; type: in vivo, BALB/c mice; settings: for Total Evaluation: 3 × (number of + in proteinuria) + (number of + in serum parameter); for Proteinuria 5th day: 5th day from intravenous injection of anti-GBM serum; for Proteinuria 5th day / Proteinuria 10th day / Serum Parameter BUN (blood urea nitrogen) / Serum Parameter S-Ch (serum cholesterol) / Serum Parameter S-Cr (serum creatinine): oral; for Proteinuria 10th day: 10th day from intravenous injection of anti-GBM serum; for Serum Parameter BUN (blood urea nitrogen) / Serum Parameter S-Ch (serum cholesterol) / Serum Parameter S-Cr (serum creatinine): 11th day;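 for Proteinuria 10th day: minus not effective plus trend double p<0.05 triple p<0.01 quadruple p<0.001 improvement vs control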;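 for Proteinuria 5th day: minus not effective plus trend double p<0.05 triple p<0.01 quadruple p<0.001 improvement vs control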;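 for Serum Parameter BUN (blood urea nitrogen): minus not effective plus trend double p<0.05 triple p<0.01 quadruple p<0.001 improvement vs control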;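 for Serum Parameter S-Ch (serum cholesterol): minus not effective plus trend double p<0.05 triple p<0.01 quadruple p<0.001 improvement vs control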
Method: BALB/c mice (5 weeks old, purchased from Nippon Charles Liver) were quarantined and adapted for about 1 week before subjecting to experiments. These mice were divided into several groups for the experiments so that average body weights and standard deviations were almost identical in all groups. Mouse anti-GBM (glomerular basement membrane) nephritis was caused by immunizing the mice with rabbit γ-globulin (1 mg) with Freund's complete adjuvant and intravenously injecting rabbit anti-mouse GBM serum on the fifth day from the immunization. Each compound tested was forcedly orally administered via an oral sonde almost simultaneously with the intravenous injection of the anti-GBM serum. On the 5th and 10th days from the intravenous injection, urine was taken by a plastic metabolic cage and proteinuria was measured (Ohtsuka Tonein TP2). On the 11th day, blood was taken by cutting the carotid and serum cholesterol (S--Ch), blood urea nitrogen (BUN) and serum creatinine (S--Cr) were measured by Toshiba TBA-380 autoanalyzer.

total TGF-β1 = assay: production of total TGF-β1 in glomeruli isolated from nephritic mice (ELISA); type: cell-based, BALB/c male mice; settings: Mus musculus, 10^-6 M, 48 hours, supernatant acid treated, read-out: Inhibition rate (%) of production of total TGF-β1
Method: as §1, §2

TGF-β1 = assay: Glomerular TGF-β1 Expression in IgA Nephropathy in Mice (immunohistochemical staining score); type: in vivo, Male ddY mice; settings: for staining score (Index), glomerular TGF-β1: 5 weeks, Mean ± S.E.
Text: Effects of the compounds of the present Invention on the Glomerular TGF-β1 Expression in IgA Nephropahty in Mice
Male ddY mice of 9 weeks old were used, each group consisting of 5 mice. One kidney was nephrectomized from the mice on the zero week, and carbon was intravenously injected from 1 week after the nephrectomy (once per week, total three times). In Experiment 1, administration was commenced on the final day of the intravenous injection of carbon. In Experiment 2, administration was commenced after the mice were allowed to stand for 10 weeks from the intravenous injection of carbon. In both Experiments, the administration was continued for 5 weeks and then the kidney was taken, fixed with […] and embedded in paraffin. Sliced specimens were stained as TGF-β1 positive area by the immunohistochemical analysis method using TGF-β1 antibody.
Staining was evaluated according to the Kagami et al. method (Kagami S., Border WA., Ruslahti E., Noble B.: Coordinated expression of β integrins and transforming growth factor-β induced matrix proteins in glomerulonephritis. Lab Invest 1993, 69, 68-76) and is shown as staining score (Index).

[1] = Experiment 2, 2.0 mg/kg, p < 0.05 vs control

| SMILES | inhibition at 1 µM (active TGF-β1) | Total Evaluation (anti-GBM nephritic mice) | Proteinuria 5th day (anti-GBM nephritic mice) | Proteinuria 10th day (anti-GBM nephritic mice) | Serum Parameter BUN (blood urea nitrogen) (anti-GBM nephritic mice) | Serum Parameter S-Ch (serum cholesterol) (anti-GBM nephritic mice) | Serum Parameter S-Cr (serum creatinine) (anti-GBM nephritic mice) | inhibition at 1 µM (total TGF-β1) | further results |
| --- | --- | --- | --- | --- | --- | --- | --- | --- | --- |
| COc1cc(CCN(C)C(=O)/C=C/c2cccnc2)ccc1O [Compound 73] | 78% | 22 | +++ | +++ | + | +++ | - | 84% |  |
| O=C(/C=C/c1cccnc1)NCCc1cccc(O)c1 [Compound 81, (E)-N-(3-hydroxyphenethyl)-3-(3-pyridyl)-2-propenoic acid amide] | 58% | 26 | +++ | +++ | +++ | +++ | ++ |  |  |
| COc1ccc(CCN(C)C(=O)/C=C/c2cccnc2)cc1OC [Compound 84, (E)-N-(3,4-dimethoxyphenethyl)-N-methyl-3-(3-pyridyl)-2-propenoic acid amide] | 40% | 23 | +++ | +++ | +++ | ++ | - | 85% |  |
| CCOC(=O)COc1cccc(CCNC(=O)/C=C/c2cccnc2)c1 [Compound 99] |  | 21 | +++ | +++ | + | - | ++ |  | glomerular TGF-β1 expression (TGF-β1; Experiment 1): tendency of inhibiting glomerular TGF-β1 expression; % inhibition of Index (TGF-β1; Experiment 1, 0.1 mg/kg): 15%; staining score (Index), glomerular TGF-β1 (TGF-β1; Experiment 1, 0.1 mg/kg): 0.17 ± 0.04; % inhibition of Index (TGF-β1; Experiment 1, 0.5 mg/kg): 35%; staining score (Index), glomerular TGF-β1 (TGF-β1; Experiment 1, 0.5 mg/kg): 0.13 ± 0.03; % inhibition of Index (TGF-β1; Experiment 1, 2.0 mg/kg): 45%; staining score (Index), glomerular TGF-β1 (TGF-β1; Experiment 1, 2.0 mg/kg): 0.11 ± 0.03; increase of Index (TGF-β1; Experiment 2): significantly inhibited the increase of Index; % inhibition of Index (TGF-β1; Experiment 2, 0.1 mg/kg): 29%; staining score (Index), glomerular TGF-β1 (TGF-β1; Experiment 2, 0.1 mg/kg): 0.29 ± 0.04; staining score (Index), glomerular TGF-β1 (TGF-β1; [1]): 0.18 ± 0.05; % inhibition of Index (TGF-β1; [1]): 56%; production of TGF-β1 in vivo (TGF-β1; Experiments 1 and 2, conclusion): inhibiting action on the production of TGF-β1 in vivo |
| O=C(O)COc1cccc(CCNC(=O)/C=C/c2cccnc2)c1 [Compound 148] | 45% |  |  |  |  |  |  | 78.3% |  |

Source: patent US6313153A, “Compositions and methods for treating nephritis and inhibiting TGF -β related conditions using pyridylacrylamide derivatives” (Tsumura & Co., priority 1997, dated 2001)
